According to the supplement of paper PMC11208160:

test: recombinant barcode read abundance after kanamycin selection (control-corrected) (log10(CPM+1)); higher = more efficient recombination; sequences stand for … in AGTGCAGAGAAAATCGGCCAGTTTTCTCTGCCTGCAGTCCGCATGCCGT…AGATTTATGCAGCGGACTGCCTTTCTCCCAAAGTGATAAACCGGACAGTATCATGGACCGGTTTTCCCGGTAATCCGTATTTGCAAGGTTGGTTTCACT; site = the 11-nt target
Outline: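 Pooled oligos, each joining a target to an IS621 bridge RNA target-binding loop, were cloned and co-electroporated with a donor plasmid into E. coli. Selective plates carried chloramphenicol/ampicillin/kanamycin and 0.1 mM IPTG, while chloramphenicol/ampicillin LB agar served as control, with two replicates of each. Recombination efficiency rests on averaged, control-corrected counts per million of barcodes at recombinant junctions, shown as log10(CPM+1).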
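Further: IS621 recombinase and bridge RNA in Escherichia coli cells.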

Point of comparison: “TACGTGGCTTGGGTTCTAACCTGTTGCCT (site TACGGGGCTAG)”, “recombinant barcode read abundance (log10)” value 0.502. Against it:
- TACATCCCTTGGGTTCTAACCTGTTGCCG (site TACATCCCTCG) — within 0.2 log units, 0.623
- TACATCCCTTGGGTTCTAACCTGTTGCCG (site TACATCCCTGG) — lower, 0.0502
- TACATCCCTTGGGTTCTAACCTGTTGCCG (site TACATCCCTTG) — lower, 0.0738
- TACCAGACTTGGGTTCTAACCTGTTGCCT (site TACCAGACTAG) — higher, 1.26
- TACCAGACTTGGGTTCTAACCTGTTGCCT (site TACCCGACTAG) — lower, 0.033
- TACCAGACTTGGGTTCTAACCTGTTGCCT (site TACCGGACTAG) — lower, 0.191
- TACCAGACTTGGGTTCTAACCTGTTGCCT (site TACCTGACTAG) — lower, 0.0512
- TACCCTTCTTGGGTTCTAACCTGTTGCGT (site CCTAAGCCTCA) — lower, 0.0691
- TACCCTTCTTGGGTTCTAACCTGTTGCGT (site TACCCTTCTAC) — higher, 1.84
- TACCGGACTTGGGTTCTAACCTGTTGCCT (site TACCAGACTAG) — lower, 0.252
- TACCGGACTTGGGTTCTAACCTGTTGCCT (site TACCCGACTAG) — lower, 0.139
- TACCGGACTTGGGTTCTAACCTGTTGCCT (site TACCGGACTAG) — higher, 1.56
- TACCGGACTTGGGTTCTAACCTGTTGCCT (site TACCTGACTAG) — lower, 0.0144
- TACCGGTCTTGGGTTCTAACCTGTTGCTT (site TACCAGTCTAA) — lower, 0.18
- TACCGGTCTTGGGTTCTAACCTGTTGCTT (site TACCCGTCTAA) — lower, 0.13
- TACCGGTCTTGGGTTCTAACCTGTTGCTT (site TACCGGTCTAA) — higher, 1.46
- TACCGGTCTTGGGTTCTAACCTGTTGCTT (site TACCTGTCTAA) — lower, 0.00501
- TACCTAACTTGGGTTCTAACCTGTTGCTT (site GGTTCCTCTCC) — lower, 0.206
- TACCTAACTTGGGTTCTAACCTGTTGCTT (site TACCTAACTAA) — lower, 0.0655
- TACCTGCCTTGGGTTCTAACCTGTTGCGT (site GCCCTGCCTAC) — lower, 0.0159
- TACCTGCCTTGGGTTCTAACCTGTTGCGT (site TACCTGCCTAC) — higher, 1.27
- TACCTGTCTTGGGTTCTAACCTGTTGCTT (site TACCAGTCTAA) — lower, 0.139
- TACCTGTCTTGGGTTCTAACCTGTTGCTT (site TACCCGTCTAA) — lower, 0.251
- TACCTGTCTTGGGTTCTAACCTGTTGCTT (site TACCGGTCTAA) — within 0.2 log units, 0.543
- TACCTGTCTTGGGTTCTAACCTGTTGCTT (site TACCTGTCTAA) — higher, 1.77
- TACGACGCTTGGGTTCTAACCTGTTGCCT (site TAAGACGCTAG) — lower, 0.0663
- TACGACGCTTGGGTTCTAACCTGTTGCCT (site TACGACGCTAG) — higher, 0.756
- TACGACGCTTGGGTTCTAACCTGTTGCCT (site TAGGACGCTAG) — lower, 0.0186
- TACGACGCTTGGGTTCTAACCTGTTGCCT (site TATGACGCTAG) — lower, 0.128
- TACGATACTTGGGTTCTAACCTGTTGCGT (site CTACGACCTCT) — lower, 0.0489
- TACGATACTTGGGTTCTAACCTGTTGCGT (site TACGATACTAC) — higher, 1.19
- TACGCTCCTTGGGTTCTAACCTGTTGCGT (site TACGCTCCTAA) — lower, 0.0715
- TACGCTCCTTGGGTTCTAACCTGTTGCGT (site TACGCTCCTAC) — lower, 0.108
- TACGCTCCTTGGGTTCTAACCTGTTGCGT (site TACGCTCCTAG) — lower, 0.0936
- TACGCTCCTTGGGTTCTAACCTGTTGCGT (site TACGCTCCTAT) — within 0.2 log units, 0.501
- TACGGTCCTTGGGTTCTAACCTGTTGCTT (site TACGGTCCTAA) — higher, 1.08
- TACGGTCCTTGGGTTCTAACCTGTTGCTT (site TAGGCTCCTAA) — lower, 0.261
- TACGTGGCTTGGGTTCTAACCTGTTGCCT (site TACGAGGCTAG) — lower, 0.182
- TACGTGGCTTGGGTTCTAACCTGTTGCCT (site TACGCGGCTAG) — lower, 0.0139
- TACGTGGCTTGGGTTCTAACCTGTTGCCT (site TACGTGGCTAG) — higher, 0.825
- TACGTGTCTTGGGTTCTAACCTGTTGCTA (site TACGTGTCTTA) — higher, 2.19
- TACGTGTCTTGGGTTCTAACCTGTTGCTA (site TGCGTGTCTCA) — lower, 0.051
- TACTAACCTTGGGTTCTAACCTGTTGCCT (site CATTAACCTAG) — lower, 0.0235
- TACTAACCTTGGGTTCTAACCTGTTGCCT (site TACTAACCTAG) — higher, 0.752
- TACTACCCTTGGGTTCTAACCTGTTGCCA (site TACTACCCTTG) — within 0.2 log units, 0.606
- TACTACCCTTGGGTTCTAACCTGTTGCCA (site TAGTATCCTTG) — lower, 0.0944
- TACTACCCTTGGGTTCTAACCTGTTGCCT (site TACTACCCTAG) — higher, 1.46
- TACTACCCTTGGGTTCTAACCTGTTGCCT (site TCCTACCCTAG) — lower, 0.126
- TACTACCCTTGGGTTCTAACCTGTTGCCT (site TGCTACCCTAG) — lower, 0.0397
- TACTACCCTTGGGTTCTAACCTGTTGCCT (site TTCTACCCTAG) — lower, 0.0291
- TACTGGGCTTGGGTTCTAACCTGTTGCGG (site TACTGGGCTCA) — within 0.2 log units, 0.316
- TACTGGGCTTGGGTTCTAACCTGTTGCGG (site TACTGGGCTCC) — higher, 2.2
- TACTTACCTTGGGTTCTAACCTGTTGCCT (site TACTTACCTAG) — within 0.2 log units, 0.362
- TACTTACCTTGGGTTCTAACCTGTTGCCT (site TTCTTACCTAG) — lower, 0.0922
- TACTTAGCTTGGGTTCTAACCTGTTGCCG (site TACTTAGCTCG) — lower, 0.075
- TACTTAGCTTGGGTTCTAACCTGTTGCCG (site TAGTTACCTCG) — lower, 0.0382
- TAGAACCCTTGGGTTCTAACCTGTTGCTT (site TAGAACCCTAA) — within 0.2 log units, 0.367
- TAGAACCCTTGGGTTCTAACCTGTTGCTT (site TAGATCCCTAA) — lower, 0.0967
- TAGAACTCTTGGGTTCTAACCTGTTGCCC (site TAGAACTCTAG) — lower, 0.296
- TAGAACTCTTGGGTTCTAACCTGTTGCCC (site TAGAACTCTCG) — lower, 0.0614
- TAGAACTCTTGGGTTCTAACCTGTTGCCC (site TAGAACTCTGG) — within 0.2 log units, 0.427
- TAGAACTCTTGGGTTCTAACCTGTTGCCC (site TAGAACTCTTG) — lower, 0.0327
- TAGAACTCTTGGGTTCTAACCTGTTGCGC (site ACATTTCCTAT) — lower, 0.0572
- TAGAACTCTTGGGTTCTAACCTGTTGCGC (site TAGAACTCTGC) — higher, 1
- TAGAAGCCTTGGGTTCTAACCTGTTGCCG (site TACAAGCCTAG) — lower, 0.0659
- TAGAAGCCTTGGGTTCTAACCTGTTGCCG (site TAGAAGCCTCG) — higher, 1.62
- TAGAAGGCTTGGGTTCTAACCTGTTGCGT (site TAGAAGGCTAA) — within 0.2 log units, 0.445
- TAGAAGGCTTGGGTTCTAACCTGTTGCGT (site TAGAAGGCTAC) — higher, 2.75
- TAGAAGGCTTGGGTTCTAACCTGTTGCGT (site TAGAAGGCTAG) — lower, 0.273
- TAGAAGGCTTGGGTTCTAACCTGTTGCGT (site TAGAAGGCTAT) — higher, 1.96
- TAGAATGCTTGGGTTCTAACCTGTTGCTT (site TAGAATGCTAA) — lower, 0.285
- TAGAATGCTTGGGTTCTAACCTGTTGCTT (site TAGAATGCTAG) — lower, 0.148
- TAGACATCTTGGGTTCTAACCTGTTGCAT (site AAGACATCTAA) — lower, 0.133
- TAGACATCTTGGGTTCTAACCTGTTGCAT (site TAGACATCTAT) — within 0.2 log units, 0.353
- TAGACCACTTGGGTTCTAACCTGTTGCAC (site CTATATGCTAA) — lower, 0.0777
- TAGACCACTTGGGTTCTAACCTGTTGCAC (site TAGACCACTGT) — higher, 0.954
- TAGAGAGCTTGGGTTCTAACCTGTTGCGG (site TAAAGAGCTCC) — higher, 1.57
- TAGAGAGCTTGGGTTCTAACCTGTTGCGG (site TACAGAGCTCC) — lower, 0.202
- TAGAGAGCTTGGGTTCTAACCTGTTGCGG (site TAGAGAGCTCC) — higher, 2.09
- TAGAGAGCTTGGGTTCTAACCTGTTGCGG (site TATAGAGCTCC) — within 0.2 log units, 0.356
- TAGAGCTCTTGGGTTCTAACCTGTTGCTG (site TAGAGCTCTCA) — higher, 0.75
- TAGAGCTCTTGGGTTCTAACCTGTTGCTG (site TAGTGCTCTGA) — lower, 0.0075
- TAGATAACTTGGGTTCTAACCTGTTGCTG (site ACCCATTCTAC) — lower, 0
- TAGATAACTTGGGTTCTAACCTGTTGCTG (site TAGATAACTCA) — higher, 1.02
- TAGCACTCTTGGGTTCTAACCTGTTGCAG (site AAGCACCCTCT) — lower, 0.0429
